Converted amounts (≈) assume the structure as drawn.
Legend:
[1] = Clearance in C57BL/6J mouse at 2 mg/kg, iv measured after 0.08 to 24 hrs; type: ADME, organism-based; conditions: in vivo, time 0.08-24 hrs
[2] = target: T1, Prostaglandin G/H synthase 1 (Homo sapiens, UniProt P23219); assay: Inhibition of COX1 (unknown origin) expressed in HEK293 TRex cells assessed as reduction in PGE2 production using arachidonic acid as substrate preincubated for 60 mins followed by substrate addition for 1 hr in presence of 10% FBS by RapidFire High-Throughput Mass Spectrometry; type: ADME, cell-based, HEK293-T-REx
[3] = Drug concentration in C57BL/6J mouse colon at 10 mg/kg, po administered as cassette dose measured at 4 hrs by LC/MS/MS analysis; type: ADME, organism-based; conditions: read-out: Ct
[4] = Drug concentration in C57BL/6J mouse plasma at 10 mg/kg, po administered as cassette dose measured at 4 hrs by LC/MS/MS analysis; type: ADME, organism-based
[5] = target: T2, Prostaglandin G/H synthase 2 (Homo sapiens, UniProt P35354); assay: Inhibition of COX2 (unknown origin) expressed in HEK293 TRex cells assessed as reduction in PGE2 production using arachidonic acid as substrate preincubated for 60 mins followed by substrate addition for 1 hr in presence of 10% FBS by RapidFire High-Throughput Mass Spectrometry; type: cell-based, HEK293-T-REx
T2 sequence (P35354 whole entry): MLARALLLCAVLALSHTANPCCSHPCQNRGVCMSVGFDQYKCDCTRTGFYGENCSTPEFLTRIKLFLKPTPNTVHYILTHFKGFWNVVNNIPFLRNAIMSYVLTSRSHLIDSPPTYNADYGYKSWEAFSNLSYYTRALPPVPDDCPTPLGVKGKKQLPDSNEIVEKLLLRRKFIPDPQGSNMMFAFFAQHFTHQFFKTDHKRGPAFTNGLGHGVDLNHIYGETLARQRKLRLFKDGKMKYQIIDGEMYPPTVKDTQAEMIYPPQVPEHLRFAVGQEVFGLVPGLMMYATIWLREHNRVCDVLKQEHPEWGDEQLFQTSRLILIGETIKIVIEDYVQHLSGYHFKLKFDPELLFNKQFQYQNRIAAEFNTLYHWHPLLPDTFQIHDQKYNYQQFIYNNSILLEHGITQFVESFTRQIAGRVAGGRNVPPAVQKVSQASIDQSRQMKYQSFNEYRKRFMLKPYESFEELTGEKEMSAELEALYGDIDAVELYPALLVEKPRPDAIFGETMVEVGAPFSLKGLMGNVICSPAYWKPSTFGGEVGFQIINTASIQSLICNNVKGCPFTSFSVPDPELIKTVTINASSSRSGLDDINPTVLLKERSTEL

[6] = Ratio of drug concentration in C57BL/6J mouse colon to plasma at 10 mg/kg, po measured after 4 hr by liquid chromatographic triple-quadrupole mass spectrometric method; type: ADME, organism-based; conditions: for Kp at 4 h: C57BL/6J, colon / plasma; for Ratio: other tissue, 10 mg/kg, 4 h
[7] = target: T1, Prostaglandin G/H synthase 1; assay: Inhibition of human recombinant COX-1 assessed as reduction in peroxidase activity using arachidonic acid as substrate preincubated for 60 mins followed by substrate addition for 2 secs by ADPH based fluorometric analysis; type: ADME
[8] = target: T2, Prostaglandin G/H synthase 2; assay: Inhibition of human recombinant COX-2 assessed as reduction in peroxidase activity using arachidonic acid as substrate preincubated for 60 mins followed by substrate addition for 2 secs by ADPH based fluorometric analysis
[9] = target: T1, Prostaglandin G/H synthase 1; assay: Inhibition of COX1 in human whole blood assessed as reduction in calcium ionophore-stimulated TXB2 production incubated for 1 hr by ELISA; type: tissue-based
[10] = Protein binding in human colon assessed as unbound fraction; type: ADME, tissue-based
Mus musculus [11] = assay: Chemo-protective activity in C57BL/6J mouse model of spontaneous GI-tract tumor Apc-min assessed as 18F-FDG uptake in ileum at 300 mg/kg, po incorporated into chow diet administered daily for 2 weeks and measured after 14 days by ex vivo PET imaging analysis relative to control; type: functional
[12] = target: T2, Prostaglandin G/H synthase 2; assay: Inhibition of human recombinant COX-2 using arachidonic acid as substrate preincubated for 60 mins followed by substrate addition for 2 secs by ADPH based fluorometric analysis
[13] = Drug concentration in C57BL/6J mouse portal vein plasma at 10 mg/kg, po administered as cassette dose measured at 4 hrs by LC/MS/MS analysis; type: ADME, organism-based
[14] = target: T3, Prostaglandin G/H synthase 2 (Homo sapiens) (UniProt P35354)
T3 sequence (whole entry): T2 sequence (P35354 whole entry)
Description: Protein occupancy at human recombinant COX-2 assessed as dissociation half life

Mus musculus [15] = assay: Antitumor activity in C57BL/6J mouse model of spontaneous GI-tract tumor Apc-min assessed as reduction in total ileum polyp area at 300 mg/kg, po administered as suspension for 10 to 12 weeks; type: functional; conditions: time 10-12 weeks, read-out: TGI
[16] = Equilibrium solubility of compound in FASSIF at pH 6.5; type: physicochemical
[17] = target: T2, Prostaglandin G/H synthase 2; assay: Inhibition of COX2 in human whole blood assessed as reduction in LPS stimulated PGE2 production incubated for 1 hr by ELISA; type: tissue-based
[18] = Protein binding in human plasma assessed as unbound fraction; type: ADME, cell-free
[19] = Half life in human liver microsomes; type: ADME, Microsome
[20] = Volume of distribution at steady state in C57BL/6J mouse at 2 mg/kg, iv measured after 0.08 to 24 hrs; type: ADME, organism-based; conditions: C57BL/6J, in vivo, time 0.08-24 hrs, read-out: Vdss
[21] = Half life in C57BL/6J mouse at 2 mg/kg, iv measured after 0.08 to 24 hrs; type: ADME, organism-based; conditions: C57BL/6J, in vivo, time 0.08-24 hrs
[22] = Half life in human hepatocytes; type: ADME, cell-based, Hepatocyte
[23] = Tmax in C57BL/6J mouse at 10 mg/kg, po administered as cassette dose measured at 4 hrs by liquid chromatographic triple-quadrupole mass spectrometric method; type: ADME, organism-based; conditions: in vivo
[24] = Half life in mouse liver microsomes; type: ADME, Microsome
in vivo = conditions: C57BL/6J, mouse, colon / portal vein plasma, po, 10 mg/kg
Description: Ratio of drug concentration in C57BL/6J mouse colon to portal vein plasma at 10 mg/kg, po measured after 4 hr by liquid chromatographic triple-quadrupole mass spectrometric method

Mus musculus [25] = assay: Antitumor activity in C57BL/6J mouse model of spontaneous GI-tract tumor Apc-min assessed as mouse survival at 100 mg/kg, po administered daily as suspension and measured at day 82 by Kaplan-Meier method; type: functional
[26] = Half life in mouse hepatocytes; type: ADME, cell-based, Hepatocyte
HEK293 = assay: Selectivity ratio of IC50 for COX1 (unknown origin) expressed in HEK293 TRex cells assessed as reduction in PGE2 production to IC50 for COX2 (unknown origin) expressed in HEK293 TRex cells assessed as reduction in PGE2 production; type: cell-based; conditions: Homo sapiens
Homo sapiens = species on record: Homo sapiens; assay: Selectivity ratio of IC50 for COX1 in human whole blood assessed as reduction in calcium ionophore-stimulated TXB2 production to IC50 for COX2 in human whole blood assessed as reduction in LPS stimulated PGE2 production; type: tissue-based

T1 sequence (P23219 whole entry): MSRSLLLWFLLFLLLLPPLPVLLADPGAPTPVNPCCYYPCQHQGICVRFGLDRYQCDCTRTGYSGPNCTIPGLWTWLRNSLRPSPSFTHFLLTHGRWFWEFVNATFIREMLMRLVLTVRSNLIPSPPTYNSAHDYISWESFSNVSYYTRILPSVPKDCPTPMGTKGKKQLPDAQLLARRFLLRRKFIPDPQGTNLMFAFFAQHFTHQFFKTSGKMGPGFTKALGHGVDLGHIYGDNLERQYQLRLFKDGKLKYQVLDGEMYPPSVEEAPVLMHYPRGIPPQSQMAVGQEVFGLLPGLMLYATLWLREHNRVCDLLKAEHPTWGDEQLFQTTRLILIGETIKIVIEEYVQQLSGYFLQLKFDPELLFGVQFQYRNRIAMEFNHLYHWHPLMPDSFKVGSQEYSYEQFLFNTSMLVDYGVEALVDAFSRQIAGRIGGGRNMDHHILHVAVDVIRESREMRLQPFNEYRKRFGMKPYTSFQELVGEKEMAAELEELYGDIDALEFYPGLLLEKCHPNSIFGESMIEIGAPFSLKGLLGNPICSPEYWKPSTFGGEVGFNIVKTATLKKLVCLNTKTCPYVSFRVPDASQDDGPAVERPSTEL

SMILES	clearance [1]	IC50 [2]	concentration at 4 h [3]	concentration at 4 h [4]	IC50 [5]	Kp at 4 h [6]	IC50 [7]	IC50 [8]	further results
Cc1ccc(-c2ncc(Cl)cc2-c2ccc(S(C)(=O)=O)cc2)cn1 [ETORICOXIB]	41.3 mL/min/kg	> 50 µM	55.7 ng/g	36.4 ng/mL	–	1.5	> 50 µM	–	IC50 [9]: 93.8 µM; half-life [19]: > 3.07 h; Vd [20]: 1.27 L/kg; Activity (Mus musculus [11]): 43.5%; half-life [21]: 0.78 h; half-life [22]: > 6.18 h; Tmax [23]: 0.25 h; half-life [24]: 0.897 h; Kp at 4 h (in vivo): 1.2; Survival (Mus musculus [25]): >82 days; concentration at 4 h [13]: 48.6 ng/mL; T1/2 [14]: 6.1 h; half-life [26]: 0.487 h; solubility thermodynamic [16]: 358 µM (≈ 128 µg/mL); fraction unbound [18]: 0.114
CCc1cnc(OCC(C)(C)O)c(-c2ccc(S(C)(=O)=O)cc2)c1	65.6 mL/min/kg	> 50 µM	51.6 ng/g	21.8 ng/mL	0.95 µM	2.5	> 50 µM	3.24 µM	half-life [19]: 1.15 h; Vd [20]: 1.35 L/kg; half-life [21]: 0.32 h; half-life [22]: 1.4 h; Tmax [23]: 0.25 h; half-life [24]: 0.22 h; half-life [26]: 0.0533 h
CC(C)(O)COc1ncc(C(F)(F)F)cc1-c1ccc(S(C)(=O)=O)cc1	0.54 mL/min/kg	> 50 µM	8400 ng/g	9800 ng/mL	1.5 µM	0.9	> 50 µM	0.39 µM	half-life [19]: > 3.07 h; Vd [20]: 1.55 L/kg; half-life [21]: 38.5 h; half-life [22]: > 6.18 h; Tmax [23]: 3 h; half-life [24]: > 3.07 h; half-life [26]: > 6.18 h
CCCCOc1nc(OCC(C)(C)O)c(-c2ccc(S(C)(=O)=O)cc2)cc1COCCO	55.4 mL/min/kg	> 50 µM	478 ng/g	28.7 ng/mL	0.54 µM	16.5	–	–	–
CC(C)Oc1nc(OCC(C)(C)O)c(-c2ccc(S(C)(=O)=O)cc2)cc1CO	–	> 50 µM	–	–	> 50 µM	–	> 50 µM	4.1 µM	–
COCCOc1nc(OCC(C)(C)O)c(-c2ccc(S(C)(=O)=O)cc2)cc1CO	–	> 50 µM	–	–	2.95 µM	–	> 50 µM	18.2 µM	–
COc1nc(OCC(C)(C)O)c(-c2ccc(S(C)(=O)=O)cc2)cc1CO	–	> 50 µM	–	–	> 50 µM	–	> 50 µM	17.1 µM	–
CCCCOc1nc(OCC2(O)COC2)c(-c2ccc(S(C)(=O)=O)cc2)cc1CO	68.6 mL/min/kg	> 50 µM	11900 ng/g	7.7 ng/mL	1.32 µM	–	–	–	Ratio [6]: 1596
CCCCOc1nc(OCC2(C)COC2)c(-c2ccc(S(C)(=O)=O)cc2)cc1CO	89.3 mL/min/kg	> 50 µM	1850 ng/g	2 ng/mL	0.21 µM	–	–	–	Ratio [6]: 1040
CCCCOc1nc(OCC(C)(C)O)c(-c2ccc(S(C)(=O)=O)cc2)cc1C(=O)O	–	–	–	–	–	–	–	> 50 µM	–
CC(C)(O)COc1ncc(CO)cc1-c1ccc(S(C)(=O)=O)cc1	–	> 50 µM	–	–	> 50 µM	–	> 50 µM	> 50 µM	–
Cc1ccc(-c2cc(C(F)(F)F)nn2-c2ccc(S(N)(=O)=O)cc2)cc1 [CELECOXIB]	10.5 mL/min/kg	–	9460 ng/g	2550 ng/mL	–	–	–	–	half-life [19]: 1.12 h; fraction unbound [10]: 0.0031; Vd [20]: 0.94 L/kg; Activity (Mus musculus [11]): 31.4%; half-life [21]: 1.27 h; half-life [22]: 0.957 h; Tmax [23]: 0.25 h; half-life [24]: 0.988 h; Survival (Mus musculus [25]): >82 days; concentration at 4 h [13]: 2150 ng/mL; half-life [26]: 0.552 h; inhibition in vivo at 300 mg/kg (Mus musculus [15]): 65.9%; solubility thermodynamic [16]: 134 µM (≈ 50.9 µg/mL); Fu [18]: 0.3%

The next lines start with results.

clearance [1]	IC50 [2]	concentration at 4 h [3]	concentration at 4 h [4]	IC50 [5]	Kp at 4 h [6]	IC50 [7]	IC50 [8]	SMILES	further results
58.8 mL/min/kg	> 50 µM	85.8 ng/g	35.8 ng/mL	1.21 µM	2.5	–	–	CCCCOc1nc(OCC(C)(C)O)c(-c2ccc(S(C)(=O)=O)cc2)cc1C(C)(C)O	–
–	> 50 µM	–	–	1.89 µM	–	> 50 µM	6.36 µM	Cc1cnc(OCC(C)(C)O)c(-c2ccc(S(C)(=O)=O)cc2)c1	–
–	> 50 µM	12000 ng/g	5.5 ng/mL	0.23 µM	–	> 50 µM	0.45 µM	CCCCOc1nc(OCC(C)(C)O)c(-c2ccc(S(N)(=O)=O)cn2)cc1CO	IC50 [9]: > 60 µM; fraction unbound [10]: 0.075; Activity (Mus musculus [11]): 54.8%; Ki [12]: 0.019 µM; concentration at 4 h [13]: 7.1 ng/mL; T1/2 [14]: 23 h; inhibition in vivo at 300 mg/kg (Mus musculus [15]): 25%; solubility thermodynamic [16]: 63.1 µM (≈ 26.8 µg/mL); Ratio [6]: 2179; IC50 [17]: 7.23 µM; fraction unbound [18]: 0.002
102 mL/min/kg	2.46 µM	1870 ng/g	6.7 ng/mL	0.036 µM	402	–	–	CCCCOc1nc(OCC2COC2)c(-c2ccc(S(C)(=O)=O)cc2)cc1CO	Ratio IC50 (HEK293): 70
100 mL/min/kg	7.23 µM	5390 ng/g	9.9 ng/mL	0.037 µM	545	> 50 µM	0.12 µM	CCCCOc1nc(OCC2(O)CCC2)c(-c2ccc(S(C)(=O)=O)cc2)cc1CO	IC50 [9]: > 60 µM; fraction unbound [10]: 0.055; Activity (Mus musculus [11]): 61.2%; Ki [12]: 0.003 µM; Kp at 4 h (in vivo): 69.9; concentration at 4 h [13]: 82.4 ng/mL; T1/2 [14]: 39 h; solubility thermodynamic [16]: 56.1 µM (≈ 24.4 µg/mL); IC50 [17]: 0.146 µM; fraction unbound [18]: 0.005; Ratio IC50 (Homo sapiens): > 200
32.2 mL/min/kg	0.511 µM	1940 ng/g	75.9 ng/mL	0.049 µM	24.9	–	–	CCCCOc1nc(-c2ccc(F)cc2)c(-c2ccc(S(C)(=O)=O)cc2)cc1CO	Ratio IC50 (HEK293): 10
48.2 mL/min/kg	7.69 µM	2810 ng/g	22.8 ng/mL	2.34 µM	134	–	–	CCCCOc1nc(OCC(C)(C)O)c(-c2ccc(S(C)(=O)=O)cc2)cc1C(C)O (centres undefined)	–

— ChEMBL document CHEMBL4808216, “Gut-Restricted Selective Cyclooxygenase-2 (COX-2) Inhibitors for Chemoprevention of Colorectal Cancer” (J Med Chem, 2021)
